Patent publication US20230167122A1, “PESTICIDALLY ACTIVE HETEROCYCLIC DERIVATIVES WITH SULFUR CONTAINING SUBSTITUENTS” (SYNGENTA CROP PROTECTION AG, priority 2020, published 2023)

Assays:
Format in all cases: in vivo
[1] = system: Bemisia tabaci (Cotton White Fly); assay: Example B1: Activity against Bemisia tabaci (cotton white fly), sprayed cotton leaf discs; conditions: foliar, 144 h, application rate of 200 ppm, adult white flies on cotton leaf discs, 6 days after incubation
Method: Example B1: Activity Against Bemisia tabaci (Cotton White Fly)
Cotton leaf discs were placed on agar in 24-well microtiter plates and sprayed with aqueous test solutions prepared from 10′000 ppm DMSO stock solutions. After drying the leaf discs were infested with adult white flies. The samples were checked for mortality 6 days after incubation.

[2] = system: Diabrotica balteata (Corn Root Worm); assay: Example B2: Activity against Diabrotica balteata (corn root worm), sprayed maize sprouts; conditions: 96 h, application rate of 200 ppm, L2 larvae on maize sprouts, 4 days after infestation, read-out: effect in at least one of the two categories (mortality or growth inhibition)
Method: Example B2: Activity Against Diabrotica balteata (Corn Root Worm)
Maize sprouts placed onto an agar layer in 24-well microtiter plates were treated with aqueous test solutions prepared from 10′000 ppm DMSO stock solutions by spraying. After drying, the plates were infested with L2 larvae (6 to 10 per well). The samples were assessed for mortality and growth inhibition in comparison to untreated samples 4 days after infestation.

[3] = system: Euschistus heros (Neotropical Brown Stink Bug); assay: Example B3: Activity against Euschistus heros (neotropical brown stink bug), sprayed soybean leaf; conditions: 120 h, application rate of 200 ppm, N-2 nymphs on soybean leaf, 5 days after infestation, read-out: effect in at least one of the two categories (mortality or growth inhibition)
Method: Example B3: Activity Against Euschistus heros (Neotropical Brown Stink Bug)
Soybean leaf on agar in 24-well microtiter plates were sprayed with aqueous test solutions prepared from 10′000 ppm DMSO stock solutions. After drying the leaf were infested with N-2 nymphs. The samples were assessed for mortality and growth inhibition in comparison to untreated samples 5 days after infestation.

[4] = system: Myzus persicae (Green Peach Aphid); assay: Example B6: Activity against Myzus persicae (green peach aphid), sprayed sunflower leaf discs; conditions: foliar, 144 h, application rate of 200 ppm, aphid population of mixed ages on sunflower leaf discs, 6 days after infestation
Method: Example B6: Activity Against Myzus persicae (Green Peach Aphid)
Sunflower leaf discs were placed on agar in a 24-well microtiter plate and sprayed with aqueous test solutions prepared from 10′000 ppm DMSO stock solutions. After drying, the leaf discs were infested with an aphid population of mixed ages. The samples were assessed for mortality 6 days after infestation.

[5] = system: Myzus persicae (Green Peach Aphid); assay: Example B7: Activity against Myzus persicae (green peach aphid), roots of pea seedlings in test solution; conditions: 144 h, test rate of 24 ppm, roots of infested pea seedlings in test solution, 6 days
Method: Example B7: Activity Against Myzus persicae (Green Peach Aphid)
Roots of pea seedlings infested with an aphid population of mixed ages were placed directly in the aqueous test solutions prepared from 10′000 DMSO stock solutions. The samples were assessed for mortality 6 days after placing seedlings in test solutions.

[6] = system: Plutella xylostella (Diamond Back Moth); assay: Example B8: Activity against Plutella xylostella (diamond back moth), L2 larvae, artificial diet; conditions: 120 h, application rate of 200 ppm, 5 days after infestation, read-out: effect in at least one of the two categories (mortality or growth inhibition)
Method: Example B8: Activity Against Plutella xylostella (Diamond Back Moth)
(§1) 24-well microtiter plates with artificial diet were treated with aqueous test solutions prepared from 10′000 ppm DMSO stock solutions by pipetting. After drying, the plates were infested with L2 larvae (10 to 15 per well). The samples were assessed for mortality and growth inhibition in comparison to untreated samples 5 days after infestation.

[7] = system: Spodoptera littoralis (Egyptian Cotton Leaf Worm); assay: Example B9: Activity against Spodoptera littoralis (Egyptian cotton leaf worm), sprayed cotton leaf discs; conditions: foliar, 72 h, application rate of 200 ppm, L1 larvae on cotton leaf discs, 3 days after infestation
Method: Example B9: Activity Against Spodoptera littoralis (Egyptian Cotton Leaf Worm)
Cotton leaf discs were placed onto agar in 24-well microtiter plates and sprayed with aqueous test solutions prepared from 10′000 ppm DMSO stock solutions. After drying the leaf discs were infested with five L1 larvae. The samples were assessed for mortality, anti-feeding effect, and growth inhibition in comparison to untreated samples 3 days after infestation. Control of Spodoptera littoralis by a test sample is given when at least one of the categories mortality, anti-feedant effect, and growth inhibition is higher than the untreated sample.

[8] = system: Nilaparvata lugens (Brown Plant Hopper); assay: Example B11: Activity against Nilaparvata lugens (brown plant hopper), larvicide, feeding/contact; conditions: 168 h, application rate of 50 ppm, N3 nymphs on sprayed rice plants, 7 days after the treatment
Method: Example B11: Activity Against Nilaparvata lugens (Brown Plant Hopper) Larvicide, Feeding/Contact
Rice plants were treated with the diluted test solutions in a spray chamber. After drying plants were infested with ˜20 N3 nymphs. 7 days after the treatment samples were assessed for mortality and growth regulation.

[9] = system: Nilaparvata lugens (Brown Plant Hopper); assay: Example B12: Activity against Nilaparvata lugens (brown plant hopper), larvicide, systemic into water; conditions: 168 h, application rate of 12.5 ppm, systemic into nutritive solution, rice plants, N3 nymphs, 7 days after infestation
Method: Example B12: Activity Against Nilaparvata lugens (Brown Plant Hopper) Larvicide, Systemic into Water
Rice plants cultivated in a nutritive solution were treated with the diluted test solutions into nourishing cultivation system. 1 day after application plants were infested with ˜20 N3 nymphs. 7 days after infestation samples were assessed for mortality and growth regulation.

[10] = system: Tetranychus urticae (Two-Spotted Spider Mite); assay: Example B10: Activity against Tetranychus urticae (two-spotted spider mite), sprayed bean leaf discs; conditions: foliar, 192 h, application rate of 200 ppm, mixed population (mobile stages) on bean leaf discs, 8 days after infestation
Method: Example B10: Activity Against Tetranychus urticae (Two-Spotted Spider Mite)
Bean leaf discs on agar in 24-well microtiter plates were sprayed with aqueous test solutions prepared from 10′000 ppm DMSO stock solutions. After drying the leaf discs were infested with a mite population of mixed ages. The samples were assessed for mortality on mixed population (mobile stages) 8 days after infestation.

[11] = system: Carpocapsa (Cydia) pomonella (Codling Moth); assay: Example B15: Activity against Carpocapsa (Cydia) pomonella (codling moth), larvicide, feeding/contact; conditions: 336 h, application rate of 12.5 ppm, L1 larvae on sprayed diet cubes, 14 days after infestation, read-out: effect in at least one of the two categories (mortality or growth inhibition)
Method: Example B15: Activity Against Carpocapsa (Cydia) pomonella (Codling Moth), Larvicide, Feeding/Contact
Diet cubes coated with paraffin were sprayed with diluted test solutions in an application chamber. After drying off the treated cubes (10 replicates) were infested with 1 L1 larvae. Samples were incubated at 26-27° C. and checked 14 days after infestation for mortality and growth inhibition.

[12] = system: Plutella xylostella (Diamond Back Moth); assay: Example B5: Activity against Plutella xylostella (diamond back moth), eggs, artificial diet; conditions: 192 h, application rate of 200 ppm, 8 days after infestation, read-out: effect in at least one of the two categories (mortality or growth inhibition)
Method: Example B5: Activity Against Plutella xylostella (Diamond Back Moth)
as §1, with “drying, Plutella eggs were pipetted through a plastic stencil onto a gel blotting paper and” for “drying,”, “plate was closed” for “plates were infested”, “it.” for “L2 larvae (10 to 15 per well).”, “8” for “5”

CCS(=O)(=O)c1cc(OC(C)(C)C#N)cnc1-c1nc2cc(C(F)(F)F)nnc2n1C [Compound P2, 2-[[5-ethylsulfonyl-6-[7-methyl-3-(trifluoromethyl)imidazo[4,5-c]pyridazin-6-yl]-3-pyridyl]oxy]-2-methyl-propanenitrile]
≥ 80%: mortality at 200 ppm [1] | percent effect (mortality or growth inhibition) at 200 ppm [2] | percent effect (mortality or growth inhibition) at 200 ppm [3] | mortality at 200 ppm [4] | mortality at 24 ppm [5] | percent effect (mortality or growth inhibition) at 200 ppm [6] | percent control (mortality, anti-feedant effect or growth inhibition) at 200 ppm [7] | mortality at 50 ppm [8] | mortality at 12.5 ppm [9]

CCS(=O)(=O)c1cc(OC(C)(C)C#N)c(C)nc1-c1nc2cc(C(F)(F)F)cnc2n1C [Compound P4, 2-[[5-ethylsulfonyl-2-methyl-6-[3-methyl-6-(trifluoromethyl)imidazo[4,5-b]pyridin-2-yl]-3-pyridyl]oxy]-2-methyl-propanenitrile]
≥ 80%: mortality at 200 ppm [1] | percent effect (mortality or growth inhibition) at 200 ppm [2] | percent effect (mortality or growth inhibition) at 200 ppm [3] | mortality at 200 ppm [4] | percent effect (mortality or growth inhibition) at 200 ppm [6] | percent control (mortality, anti-feedant effect or growth inhibition) at 200 ppm [7] | mortality at 200 ppm [10] | mortality at 12.5 ppm [9] | percent effect (mortality or growth inhibition) at 12.5 ppm [11]

CCS(=O)(=O)c1cc(OC(C)(C)C#N)cnc1-c1nc2cc(C(F)(F)F)n(OC)c(=O)c2n1C [Compound P5, 2-[[5-ethylsulfonyl-6-[5-methoxy-3-methyl-4-oxo-6-(trifluoromethyl)imidazo[4,5-c]pyridin-2-yl]-3-pyridyl]oxy]-2-methyl-propanenitrile]
≥ 80%: mortality at 200 ppm [1] | percent effect (mortality or growth inhibition) at 200 ppm [2] | percent effect (mortality or growth inhibition) at 200 ppm [3] | mortality at 200 ppm [4] | mortality at 24 ppm [5] | percent effect (mortality or growth inhibition) at 200 ppm [6] | percent control (mortality, anti-feedant effect or growth inhibition) at 200 ppm [7] | mortality at 200 ppm [10] | mortality at 12.5 ppm [9] | percent effect (mortality or growth inhibition) at 12.5 ppm [11]

CCS(=O)(=O)c1cc(OC(C)(C)C#N)c(C)nc1-c1nc2cc(C(F)(F)F)nnc2n1C [Compound P11, 2-[[5-ethylsulfonyl-2-methyl-6-[7-methyl-3-(trifluoromethyl)imidazo[4,5-c]pyridazin-6-yl]-3-pyridyl]oxy]-2-methyl-propanenitrile]
≥ 80%: mortality at 200 ppm [1] | percent effect (mortality or growth inhibition) at 200 ppm [2] | percent effect (mortality or growth inhibition) at 200 ppm [3] | mortality at 200 ppm [4] | mortality at 24 ppm [5] | percent effect (mortality or growth inhibition) at 200 ppm [6] | percent control (mortality, anti-feedant effect or growth inhibition) at 200 ppm [7] | mortality at 50 ppm [8] | mortality at 12.5 ppm [9] | percent effect (mortality or growth inhibition) at 12.5 ppm [11]

CCS(=O)(=O)c1cc(OC(C)(C)C#N)cnc1-c1nc2cc3c(cc2n1C)OC(F)(F)O3 [Compound P15, 2-[[6-(2,2-difluoro-7-methyl-[1,3]dioxolo[4,5-f]benzimidazol-6-yl)-5-ethylsulfonyl-3-pyridyl]oxy]-2-methyl-propanenitrile]
≥ 80%: mortality at 200 ppm [1] | percent effect (mortality or growth inhibition) at 200 ppm [2] | percent effect (mortality or growth inhibition) at 200 ppm [3] | percent effect (mortality or growth inhibition) at 200 ppm [12] | mortality at 200 ppm [4] | percent control (mortality, anti-feedant effect or growth inhibition) at 200 ppm [7] | percent effect (mortality or growth inhibition) at 12.5 ppm [11]

CCS(=O)(=O)c1cc(OC(C)(C)C#N)cnc1-c1nc2cc3c(cc2o1)OC(F)(F)O3 [Compound P16, 2-[[6-(2,2-difluoro-[1,3]dioxolo[4,5-f][1,3]benzoxazol-6-yl)-5-ethylsulfonyl-3-pyridyl]oxy]-2-methyl-propanenitrile]
≥ 80%: percent effect (mortality or growth inhibition) at 200 ppm [2] | percent effect (mortality or growth inhibition) at 200 ppm [3] | percent effect (mortality or growth inhibition) at 200 ppm [12] | mortality at 200 ppm [4] | percent control (mortality, anti-feedant effect or growth inhibition) at 200 ppm [7] | percent effect (mortality or growth inhibition) at 12.5 ppm [11]
